Measured values from patent US4067997A, “Synergistic microbecidal composition and method” (priority 1976, dated 1978).

Assays:
[1] = test system: Candida albicans; test: MIC on mass basis (Example V procedure); format: cell-based
Description: (§1) The essential procedure of Example I was followed with a series of phenolic compounds, with the exception that the test method was conducted on a mass (μg/ml) basis rather than a molecular (mol/ml) basis of the foregoing tests, since the long established phenol-coeffecient test is on a mass rather than molecular basis. Additionally, a different but closely related group of organisms were used in this test, in order to give a complete representative span on gram-negative, gram-positive and fungus organisms. Additionally, the phenolic derivatives chosen for test purposes include a number of derivatives which are presently accepted by the FDA as food-grade phenolic microbicides.
(§2) The same procedure of Example V was repeated but with combinations of mono-laurin (GML).
(§3) The procedure of Example V was repeated with combinations of glycerol mono-laurin (GML) and ethylenediamine tetraacetic acid (EDTA) as the calcium salt and in combination with BHA.

[2] = test system: Escherichia coli; test: MIC on mass basis (Example V procedure); format: cell-based
Description: as §1, §2, §3

[3] = test system: Nocardia asteroides; test: MIC on mass basis (Example V procedure); format: cell-based
Description: as §1, §2, §3

[4] = test system: Pseudomonas aeruginosa; test: MIC on mass basis (Example V procedure); format: cell-based
Description: as §1, §2, §3

[5] = test system: Saccharomyces cerevisiae; test: MIC on mass basis (Example V procedure); format: cell-based
Description: as §1, §2, §3

[6] = test system: Staphylococcus aureus; test: MIC on mass basis (Example V procedure); format: cell-based
Description: as §1, §2, §3

[7] = test system: Streptococcus agalactiae; test: MIC on mass basis (Example V procedure); format: cell-based
Description: as §1, §2, §3

[8] = test system: Streptococcus mutans; test: MIC on mass basis (Example V procedure); format: cell-based, Streptococcus mutans (ATCC 10441)
Description: as §1, §2, §3

[9] = test system: Corynebacterium sp.; test: MIC on mass basis (Example V procedure); format: cell-based
Description: as §1

[10] = test system: Streptococcus faecalis (Group D); test: MIC on mass basis (Example V procedure); format: cell-based
Description: as §1

[11] = test system: Streptococcus pyogenes; test: MIC on mass basis (Example V procedure); format: cell-based
Description: as §1

[12] = 60 minute reading, colony forming units (Examples VIII, X, XII); format: cell-based; settings: Table 18; base line 2.2 × 10^6CFU
Description: The results of this experiment are recorded in the 60 minute reading.

In the case of `CCCCCCCCCCCC(=O)OCC(O)CO` (centres unmarked) [GML, glycerol mono-laurin], the MIC ([1]; Table 13, Candida albicans) is reported as > 1,000 μg/ml, the MIC ([1]; Table 14, Candida albicans) is reported as > 1,000 μg/ml and the MIC ([1]; Table 16, Candida albicans, no unit in table) is reported as > 1,000. The “MIC of GML” value ([1]; Table 17, EDTA 0) was > 10,000 μg/ml, the “MIC of GML” value ([1]; Table 17, EDTA 125) was 500 µg/mL and the “MIC of GML” value ([1]; Table 17, EDTA 250) was 500 µg/mL. The “MIC of GML” value ([1]; Table 17, EDTA 500) was 100 µg/mL, the “MIC of GML” value ([1]; Table 17, EDTA 1,000) was 100 µg/mL and the “MIC of GML” value ([1]; Table 17, EDTA 5,000) was 100 µg/mL. For the same compound, the “MIC of GML” value ([1]; Table 17, EDTA 10,000) was 100 µg/mL, the MIC ([2]; Table 13, Escherichia coli) was > 1,000 μg/ml and the MIC ([2]; Table 14, Escherichia coli) was > 1,000 μg/ml. The MIC ([2]; Table 16, Escherichia coli, no unit in table (Example 5 procedure, mass basis)) was > 1,000, the “MIC of GML” value ([2]; Table 17, EDTA 0) was > 10,000 μg/ml and the “MIC of GML” value ([2]; Table 17, EDTA 125) was > 10,000 μg/ml. The “MIC of GML” value ([2]; Table 17, EDTA 250) was > 10,000 μg/ml, the “MIC of GML” value ([2]; Table 17, EDTA 500) was > 10,000 μg/ml and the “MIC of GML” value ([2]; Table 17, EDTA 1,000) was > 10,000 μg/ml. For the same compound, the “MIC of GML” value ([2]; Table 17, EDTA 5,000) was > 10,000 μg/ml, the “MIC of GML” value ([2]; Table 17, EDTA 10,000) was > 10,000 μg/ml and the MIC ([3]; Table 13, Nocardia asteroides) was 15.60 µg/mL. For the same compound, the MIC ([3]; Table 14, Nocardia asteroides) was 7.80 µg/mL, the MIC ([3]; Table 16, Nocardia asteroides, no unit in table) was 10 and the “MIC of GML” value ([3]; Table 17, EDTA 0) was < 10 µg/mL. For the same compound, the “MIC of GML” value ([3]; Table 17, EDTA 125) was 100 µg/mL, the “MIC of GML” value ([3]; Table 17, EDTA 250) was < 10 µg/mL and the “MIC of GML” value ([3]; Table 17, EDTA 500) was < 10 µg/mL. For the same compound, the “MIC of GML” value ([3]; Table 17, EDTA 1,000) was < 10 µg/mL, the “MIC of GML” value ([3]; Table 17, EDTA 5,000) was < 10 µg/mL and the “MIC of GML” value ([3]; Table 17, EDTA 10,000) was < 10 µg/mL. For the same compound, the MIC ([4]; Table 13, Pseudomonas aeruginosa) was > 1,000 μg/ml, the MIC ([4]; Table 14, Pseudomonas aeruginosa) was > 1,000 μg/ml and the MIC ([4]; Table 16, Pseudomonas aeruginosa, no unit in table) was > 1,000. For the same compound, the “MIC of GML” value ([4]; Table 17, EDTA 0) was > 10,000 μg/ml, the “MIC of GML” value ([4]; Table 17, EDTA 125) was > 10,000 μg/ml and the “MIC of GML” value ([4]; Table 17, EDTA 250) was > 10,000 μg/ml. For the same compound, the “MIC of GML” value ([4]; Table 17, EDTA 500) was > 10,000 μg/ml, the “MIC of GML” value ([4]; Table 17, EDTA 1,000) was > 10,000 μg/ml and the “MIC of GML” value ([4]; Table 17, EDTA 5,000) was 100 µg/mL. The “MIC of GML” value ([4]; Table 17, EDTA 10,000) was < 10 µg/mL, the MIC ([5]; Table 13, Saccharomyces cerevisiae) was < 1,000 μg/ml and the MIC ([5]; Table 14, Saccharomyces cerevisiae) was 1,000 μg/ml. The MIC ([5]; Table 16, Saccharomyces cerevisiae, no unit in table) was 1,000, the “MIC of GML” value ([5]; Table 17, EDTA 0) was 1,000 μg/ml and the “MIC of GML” value ([5]; Table 17, EDTA 125) was 500 µg/mL. The “MIC of GML” value ([5]; Table 17, EDTA 250) was 100 µg/mL, the “MIC of GML” value ([5]; Table 17, EDTA 500) was 100 µg/mL and the “MIC of GML” value ([5]; Table 17, EDTA 1,000) was < 10 µg/mL. For the same compound, the “MIC of GML” value ([5]; Table 17, EDTA 5,000) was < 10 µg/mL, the “MIC of GML” value ([5]; Table 17, EDTA 10,000) was < 10 µg/mL and the MIC ([6]; Table 13, Staphylococcus aureus) was 31.25 µg/mL. The MIC ([6]; Table 14, Staphylococcus aureus) was 31.25 µg/mL, the MIC ([6]; Table 16, Staphylococcus aureus, no unit in table) was 1,000 and the “MIC of GML” value ([6]; Table 17, EDTA 0) was 1,000 μg/ml. The “MIC of GML” value ([6]; Table 17, EDTA 125) was 1,000 μg/ml, the “MIC of GML” value ([6]; Table 17, EDTA 250) was 1,000 μg/ml and the “MIC of GML” value ([6]; Table 17, EDTA 500) was 500 µg/mL. For the same compound, the “MIC of GML” value ([6]; Table 17, EDTA 1,000) was 100 µg/mL, the “MIC of GML” value ([6]; Table 17, EDTA 5,000) was < 10 µg/mL and the “MIC of GML” value ([6]; Table 17, EDTA 10,000) was < 10 µg/mL. It also gave an MIC ([7]; Table 13, Streptococcus agalactiae) of 15.60 µg/mL, an MIC ([7]; Table 14, Streptococcus agalactiae) of 31.25 µg/mL and an MIC ([8]; Table 13, Streptococcus mutans) of 31.25 µg/mL. The MIC ([8]; Table 14, Streptococcus mutans) was 31.25 µg/mL, the MIC ([9]; Table 16, Corynebacterium sp., no unit in table) was 10 and the “MIC of GML” value ([9]; Table 17, EDTA 0) was < 10 µg/mL. For the same compound, the “MIC of GML” value ([9]; Table 17, EDTA 125) was < 10 µg/mL, the “MIC of GML” value ([9]; Table 17, EDTA 250) was < 10 µg/mL and the “MIC of GML” value ([9]; Table 17, EDTA 500) was < 10 µg/mL. The “MIC of GML” value ([9]; Table 17, EDTA 1,000) was < 10 µg/mL, the “MIC of GML” value ([9]; Table 17, EDTA 5,000) was < 10 µg/mL and the “MIC of GML” value ([9]; Table 17, EDTA 10,000) was < 10 µg/mL. The MIC ([10]; Table 16, Streptococcus faecalis (Group D), no unit in table) was > 1,000, the “MIC of GML” value ([10]; Table 17, EDTA 0) was > 10,000 μg/ml and the “MIC of GML” value ([10]; Table 17, EDTA 125) was > 10,000 μg/ml. The “MIC of GML” value ([10]; Table 17, EDTA 250) was > 10,000 μg/ml, the “MIC of GML” value ([10]; Table 17, EDTA 500) was > 10,000 μg/ml and the “MIC of GML” value ([10]; Table 17, EDTA 1,000) was 1,000 μg/ml. The “MIC of GML” value ([10]; Table 17, EDTA 5,000) was < 10 µg/mL, the “MIC of GML” value ([10]; Table 17, EDTA 10,000) was < 10 µg/mL and the MIC ([11]; Table 16, Streptococcus pyogenes, no unit in table) was 10. The “MIC of GML” value ([11]; Table 17, EDTA 0) was < 10 µg/mL, the “MIC of GML” value ([11]; Table 17, EDTA 125) was < 10 µg/mL and the “MIC of GML” value ([11]; Table 17, EDTA 250) was < 10 µg/mL. For the same compound, the “MIC of GML” value ([11]; Table 17, EDTA 500) was < 10 µg/mL, the “MIC of GML” value ([11]; Table 17, EDTA 1,000) was < 10 µg/mL and the “MIC of GML” value ([11]; Table 17, EDTA 5,000) was < 10 µg/mL. For the same compound, the “MIC of GML” value ([11]; Table 17, EDTA 10,000) was < 10 µg/mL and the “60 Minute Reading” value [12] was 9.7 × 10^5 CFU.
